Structures can show the parent of a compound that is named as a salt.
How the values were obtained:
Tubulin = target: T1, Tubulin (Sus scrofa, UniProt P02550+P02554); assay: Assessment of the inhibition of tubulin polymerization (turbidimetry); assay type: biochemical, pig; settings: tubulin 10 μM, turbidity at 350 nm, 37° C.
T1 construct: Tubulin is purified from pig brains according to the published methods; from tissue; host or cells: pig brain
Description: Tubulin is purified from pig brains according to the published methods (Shelanski et al., 1973, Proc. Natl, Acad. Sci. USA, 70, 765-768. Weingarten et al., 1975, Proc. Natl, Acad. Sci. USA, 72, 1858-1862). Briefly, the brains are ground and centrifuged in an extraction buffer. The tubulin, contained in the extract supernatant, is subjected to two successive cycles of polymerization at 37° C. and depolymerization at 4° C., before being separated from the MAPs (Microtubule Associated Proteins) by chromatography on a phosphocellulose P11 column (Whatman). The tubulin thus isolated is more than 95% pure. It is stored in a buffer known as RB/2 30% glycerol, the composition of which is MES-NaOH [2-(N-morpholino)ethanesulfonic acid] 50 mM, pH 6.8; MgCl2 0.25 mM; EGTA 0.5 mM; 30% glycerol (v/v), GTP (guanosine 5′-triphosphate) 0.2 mM.
The polymerization of the tubulin into microtubules is monitored by turbidimetry as follows; the tubulin is adjusted to a concentration of 10 μM (1 mg/ml) in the RB/2 30% glycerol buffer, to which is added 1 mM GTP and 6 mM MgCl2. The polymerization is initiated by increasing the temperature from 6° C. to 37° C. in a cuvette with a 1 cm optical pathlength, placed in a Uvikon 931 spectrophotometer (Kontron) equipped with a thermostatically-regulated cuvette holder. The increase in the turbidity of the solution is monitored at 350 nm.
The products are dissolved at 10 mM in DMSO and added at variable concentrations (0.5 to 10 μM) to the tubulin solution before polymerization. The IC50 value is defined as the concentration of product which inhibits 50% of the rate of polymerization. A product whose IC50 value is less than or equal to 3 μM is considered as very active.

HDMEC cells = assay: Detachment effect on HDMEC endothelial cells; assay type: cell-based, Human; settings: 1 μM, treatment for two hours
Excerpt: A test to determine the detachment of endothelial cells was established in order to select the products on the basis of their “in vitro” activity. This test for determining the endothelial cell detachment is characterized in that the endothelial cells, inoculated in plates which are coated at the bottom with a binder, e.g., chosen from gelatin, fibronectin or vitronectin, after culturing, are supplemented with a medium containing the test compound, and the cells are then labeled with a fluorescent substance, the cells which become detached are removed by washing and the fluorescence of the remaining cells is counted in a fluorimeter.
This test consists in measuring the detachment of endothelial cells cultured on substrates based on a binder, e.g., chosen from fibronectin, vitronectin and gelatin. One day after inoculating the cells in plates containing 96 wells, for example, the culture medium is replaced with a medium containing the test compound in the absence of serum. The same preparation is prepared six times at three different concentrations ([…]) and the control without addition of antivascular product is prepared six times. After treatment for two hours with the test substance, the cells are labeled with calcein-AM (1.6 μg/ml) in a culture medium supplemented with 0.1% BSA. The cells which become detached are removed by washing with the culture medium containing 0.1% bovine serum albumin; 100 μl of medium are added to each well. The fluorescence of the remaining cells is counted in a fluorimeter. The data obtained are expressed relative to the control (untreated cells).
(§1) The assessment of the detachment of the endothelial cells in vitro is determined in the following way. HDMEC cells (Human Dermal Microvascular Endothelial Cells, Promocell, c-122102) are cultured in an ECGM-MV medium containing 5% fetal calf serum, growth factors (EGF 10 ng/ml, hydrocortisone 1 μg/ml, 0.4% growth supplement with heparin) and antibiotics (amphotericin 50 ng/ml, gentamicin 50 μg/ml). For the detachment test, the HDMECs are inoculated at a rate of 5 000 cells in clear-bottomed 96-well plates (Costar) precoated with fibronectin (10 μg/ml) or vitronectin (1 μg/ml) or gelatin. Twenty-four hours later, the culture medium is replaced with 0.1% BSA ECGM-MV medium containing the indicated products. The test concentrations are 0.1-0.3 and 1 μM for each product. After treatment for two hours, the cells are labeled for 1 hour with calcein (1.6 μg/ml, Molecular Probes) in 0.1% BSA ECGM-MV medium. The detached cells are then removed by washing with 0.1% BSA ECGM-MV medium; 100 μl of medium are added to each well. The fluorescence of the cells which remain attached to the substratum of the well is counted using a fluorimeter, Spectrafluor Plus (Tecan, excitation at 485 nm, and emission at 535 nm). The data are the average of six different samples and are expressed as a percentage of the control (untreated cells).
A cell detachment effect of greater than or equal to 15% is considered as significant.
as §1, with “(amphotericine” for “(amphotericin”, “The detached cells are then removed by washing with 0.1% BSA ECGM-MV medium; 100 μl of medium are added to each well. The fluorescence of the cells which remain attached to the substratum of the well is counted using a fluorimeter, Spectrafluor Plus (Tecan, excitation at 485 nm, and emission at 535 nm). The data are the average of six different samples and are expressed as a percentage of the control (untreated cells).” left out

[1] = system: C51 murine adenocarcinoma; assay: Assessment of the tumor necrosis in vivo; settings: intravenous injection, 24 hours after treatment, female BALB/c mice
Excerpt: Mice are bred by IFFA-CREDO (Domaine des Oncins, 69210 L'Arbresle, France) from a race obtained by Jackson Laboratories, Bar Harbor, Me., USA, or by Charles River France (76410 St Aubin les Elbeuf, France) from a race obtained by Charles River, USA. The mice initially weigh more than 18 g at the start of the test. They have free access to food (UAR reference 113, Villemoisson, 91160 Epinay sur Orge, France) and water.
The tumors used are currently transplanted in our laboratories. All these tumors are at the Frederick Cancer Research Facility (Frederick, Md., USA) in the frozen tumor deposit of the National Cancer Institute (NCl) or at the American Type Culture Collection (ATCC, Rockville, Md., USA).
The tumor transplantation techniques, the chemotherapy and the data analysis are presented in detail (Corbett et al. 1982a; Corbett et al., 1982b).
To summarize, the animals required for an experiment are assembled and implanted bilaterally on day 0 (zero).
The growth of the solid tumors develops freely up to the desired size. The mice are then treated by intravenous injection of a test compound in solution.
The sampling of tumors is usually (but not necessarily) carried out 24 hours after the treatment.
The mice are killed by […]. The implanted tumors, along with the skin covering them and the neighboring tissues, are collected and stored in 10% formaldehyde (v/v) (Carlo Erba, Val de Reuil, France).
The samples are then treated, sectioned, stained with hematoxylin, eosin and saffron yellow, and are then examined […]. The tumor necrosis (necrosis±degeneration) is assessed microscopically using a scale of magnitude from 0 to 5:
The values assigned to the tumor necrosis 24 hours after administration of the test compound correspond solely to a necrosis dependent on the product which may be differentiated with certainty from any existing necrosis arising from the experiment.
The necrosis due to the experiment was assessed on an untreated control.
The tumor model is a C51 murine adenocarcinoma. This colon tumor is a grade III mucous colon […]. It is maintained by serial subcutaneous passages every 18 days in female BALB/c mice. The experiments were carried out on female BALB/c mice.

HDMEC = assay: Inhibition of cell proliferation, HDMEC; assay type: cell-based; settings: Homo sapiens

T1 sequence (P02550 whole entry): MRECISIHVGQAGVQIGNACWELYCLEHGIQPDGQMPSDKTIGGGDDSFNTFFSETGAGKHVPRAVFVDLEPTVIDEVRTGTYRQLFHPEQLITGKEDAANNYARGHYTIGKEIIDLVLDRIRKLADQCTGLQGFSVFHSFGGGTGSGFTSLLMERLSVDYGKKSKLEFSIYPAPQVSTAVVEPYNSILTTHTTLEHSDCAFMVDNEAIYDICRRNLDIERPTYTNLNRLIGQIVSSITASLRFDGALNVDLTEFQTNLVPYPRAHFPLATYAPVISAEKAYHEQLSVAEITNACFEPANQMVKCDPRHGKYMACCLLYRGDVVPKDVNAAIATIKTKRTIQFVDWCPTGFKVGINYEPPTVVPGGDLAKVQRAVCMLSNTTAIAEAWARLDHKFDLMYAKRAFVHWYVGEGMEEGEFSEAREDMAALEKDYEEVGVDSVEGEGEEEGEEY
T1 sequence (P02554 whole entry): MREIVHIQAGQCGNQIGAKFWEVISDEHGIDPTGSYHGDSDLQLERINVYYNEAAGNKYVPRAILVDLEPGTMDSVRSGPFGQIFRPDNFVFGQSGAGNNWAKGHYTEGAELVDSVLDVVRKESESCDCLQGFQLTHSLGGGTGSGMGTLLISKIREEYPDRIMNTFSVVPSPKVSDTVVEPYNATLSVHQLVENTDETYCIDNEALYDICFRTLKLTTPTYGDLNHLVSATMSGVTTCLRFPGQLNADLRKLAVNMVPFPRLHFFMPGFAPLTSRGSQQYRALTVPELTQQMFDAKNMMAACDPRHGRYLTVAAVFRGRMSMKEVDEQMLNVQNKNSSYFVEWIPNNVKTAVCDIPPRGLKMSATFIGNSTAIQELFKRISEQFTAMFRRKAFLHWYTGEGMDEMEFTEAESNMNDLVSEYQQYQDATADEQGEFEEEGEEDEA

Compound	IC50 (Tubulin) [nM]	melting point [°C]	Percentage of detachment of HDMEC cells induced with the compound at a concentration of 1 μM (HDMEC cells) [%]	C51 colon tumor necrosis in vivo (grade) ([1]; 25 mg/kg)	IC50 (HDMEC) [nM]	C51 colon tumor necrosis in vivo (grade) ([1]; 50 mg/kg)
COc1cc(C(=O)/C(C)=C/c2ccc3[nH]ccc3c2)cc2c1OCO2 [Example 17, E-2-Methyl-3-(1-H-indol-5-yl)-1-(3-methoxy-4,5-methylenedioxyphenyl)propenone]	800	140				
COc1ccc(C=C(C)C(=O)c2cc(OC)c(OC)c(OC)c2)cc1NC(=O)[C@@H](N)CCCCN.Cl.Cl [Example 10, (S)-2,6-Diaminohexanoic acid {2-methoxy-5-[2-methyl-3-oxo-3-(3,4,5-trimethoxyphenyl)propenyl]-phenyl}amide dihydrochloride]			36	Grade 5 at 25 (5=large, >75%)	207 to 225	
COc1ccc(/C=C(\C)C(=O)c2cc(OC)c(OC)c(OC)c2)cc1NC(=O)CN [Example 14, Aminoacetic acid {2-methoxy-5-[2-methyl-3-oxo-3-(3,4,5-trimethoxyphenyl)propenyl]phenyl}amide hydrochloride]	25000		36	Grade 5 at 25 (5=large, >75%)	10	

Second part, led by results:

IC50 (Tubulin) [nM]	melting point [°C]	Compound	Percentage of detachment of HDMEC cells induced with the compound at a concentration of 1 μM (HDMEC cells) [%]	C51 colon tumor necrosis in vivo (grade) ([1]; 25 mg/kg)	IC50 (HDMEC) [nM]	C51 colon tumor necrosis in vivo (grade) ([1]; 50 mg/kg)
2000	118	COc1cc(C(=O)/C(C)=C/c2ccc3c(ccn3CCN(C)C)c2)cc2c1OCO2 [Example 18, E-2-Methyl-3-[1-(2-dimethylaminoethyl)-1-H-indol-5-yl]-1-(3-methoxy-4,5-methylenedioxyphenyl)propenone]				
800		COc1cc(C(=O)/C(C)=C/c2ccc3c(c2)CCN3C)cc(OC)c1OC [Example 6, E-2-Methyl-3-(1-methyl-2,3-dihydro-1-H-indol-5-yl)-1-(3,4,5-trimethoxyphenyl)propenone]	28		17 to 20	Grade 5 at 50 (5=large, >75%)
